What was measured:
[1] = molecular target: T1, 5-hydroxytryptamine receptor 1A (Homo sapiens, UniProt P08908); experiment: Binding affinity to 5-hydroxytryptamine 1A receptor was determined
T1 sequence (P08908 whole entry): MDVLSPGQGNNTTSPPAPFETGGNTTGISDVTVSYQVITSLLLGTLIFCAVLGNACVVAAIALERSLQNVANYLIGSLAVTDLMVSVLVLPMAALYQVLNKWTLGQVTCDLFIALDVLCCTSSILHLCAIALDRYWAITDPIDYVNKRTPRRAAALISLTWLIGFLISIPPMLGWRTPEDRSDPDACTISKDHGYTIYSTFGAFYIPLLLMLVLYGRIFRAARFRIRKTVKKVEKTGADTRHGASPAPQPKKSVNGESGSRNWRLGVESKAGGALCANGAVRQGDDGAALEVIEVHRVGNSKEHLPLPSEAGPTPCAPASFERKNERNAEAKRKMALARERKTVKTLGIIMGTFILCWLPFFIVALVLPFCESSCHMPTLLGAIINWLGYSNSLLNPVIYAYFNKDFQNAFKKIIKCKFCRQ

D(4) dopamine receptor = molecular target: T2, D(4) dopamine receptor (Homo sapiens, UniProt P21917); experiment: Binding affinity to Dopamine receptor D4 was determined
T2 sequence (P21917 whole entry): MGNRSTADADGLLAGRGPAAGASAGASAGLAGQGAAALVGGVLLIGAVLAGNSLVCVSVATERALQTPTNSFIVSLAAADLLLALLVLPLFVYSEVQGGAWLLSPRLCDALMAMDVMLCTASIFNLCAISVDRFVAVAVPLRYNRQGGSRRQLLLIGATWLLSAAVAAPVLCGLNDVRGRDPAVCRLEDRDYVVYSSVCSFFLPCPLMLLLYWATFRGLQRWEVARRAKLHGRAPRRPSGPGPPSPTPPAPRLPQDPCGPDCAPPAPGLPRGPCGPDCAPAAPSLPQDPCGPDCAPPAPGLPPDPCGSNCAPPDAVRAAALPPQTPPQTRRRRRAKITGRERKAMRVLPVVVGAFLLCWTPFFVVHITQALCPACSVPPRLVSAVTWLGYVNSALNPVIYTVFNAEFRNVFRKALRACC

D(2) dopamine receptor = D(2) dopamine receptor (Homo sapiens, UniProt P14416); experiment: Binding affinity to Dopamine receptor D2 was determined
D(2) dopamine receptor, sequence (P14416 whole entry): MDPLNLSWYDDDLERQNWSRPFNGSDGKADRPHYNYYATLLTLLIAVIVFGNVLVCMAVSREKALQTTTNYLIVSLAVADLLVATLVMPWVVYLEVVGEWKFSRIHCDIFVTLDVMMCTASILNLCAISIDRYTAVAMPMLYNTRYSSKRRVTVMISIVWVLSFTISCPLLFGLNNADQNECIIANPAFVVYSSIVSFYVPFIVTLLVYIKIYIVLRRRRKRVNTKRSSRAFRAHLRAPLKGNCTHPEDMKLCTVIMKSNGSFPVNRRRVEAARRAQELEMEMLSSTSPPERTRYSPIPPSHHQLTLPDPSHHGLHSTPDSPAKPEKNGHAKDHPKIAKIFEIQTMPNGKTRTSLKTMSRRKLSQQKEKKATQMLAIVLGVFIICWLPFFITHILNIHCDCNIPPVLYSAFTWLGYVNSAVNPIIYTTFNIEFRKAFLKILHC

`O=C1[C@@H]2[C@H]3CC[C@H](C3)[C@@H]2C(=O)N1CCCCN1CCN(c2ncccn2)CC1` [TANDOSPIRONE] showed a Ki [1] of 32 nM, a Ki (D(4) dopamine receptor) of 7.2 nM and a Ki (D(2) dopamine receptor) of 460 nM.
Work on `CN1CCN(c2nc3ccccc3c(Cl)c2Sc2ccccc2)CC1` yielded a Ki [1] of 2000 nM, a Ki (D(4) dopamine receptor) of 92 nM and a Ki (D(2) dopamine receptor) of 31 nM.
`Cc1nc(Cl)c(Sc2ccc(Cl)cc2)c(N2CCN(C)CC2)n1` was tested, and the Ki [1] was 1500 nM, the Ki (D(4) dopamine receptor) was 260 nM and the Ki (D(2) dopamine receptor) was 62 nM.
`Cc1nc(Cl)c(Sc2ccc(Cl)cc2)c(NC2CCN(Cc3ccccc3)CC2)n1` showed a Ki [1] of 160 nM, a Ki (D(4) dopamine receptor) of 2.3 nM and a Ki (D(2) dopamine receptor) of 62 nM.
Molecule `CNc1nc(Cl)c(SC)c(N2CCN(C)CC2)n1` [MEZILAMINE] has a Ki [1] of 430 nM, a Ki (D(4) dopamine receptor) greater than 10000 nM and a Ki (D(2) dopamine receptor) of 5.4 nM.
`CNc1nc(Cl)c(Sc2ccccc2)c(N2CCN(C)CC2)n1` showed a Ki [1] of 460 nM, a Ki (D(4) dopamine receptor) of 250 nM and a Ki (D(2) dopamine receptor) of 188 nM.

Source: ChEMBL document CHEMBL1134832, “Conformational analysis of tandospirone in aqueous solution: lead evolution of potent dopamine D4 receptor ligands” (Bioorg Med Chem Lett, 2001)
